Data published in article PMC8901748, “A novel prostaglandin E receptor 4 (EP4) small molecule antagonist induces articular cartilage regeneration” (Cell Discovery, 2022).

Legend:
[1] = tested on: 4 × 48-p89-Luc (Sox9 binding enhancer, Col2a1 minimal promoter) in ATDC5 cells; test: 4 × 48-p89-Luc luciferase reporter assay; type: cell-based, mouse
Procedure: Six firefly luciferase reporters were used in the Luciferase assay, including CRE-Luc (PathDetect CRE cis-Reporting System; Stratagene, La Jolla CA) driven by a basic promoter (TATA box) plus four repeats of CRE; Sox9 promoter-Luc contains human SOX9 proximal promoter region (−1034 bp to +67 bp)[45]; 4 × 48-p89-Luc, mouse Col2a1 minimal promoter. AP-1-Luc, Nf-κb-Luc, STAT-Luc were obtained from Stratagene. Chondrocytes were cultured in 24-well plates and 300 ng firefly luciferase reporter constructs were transiently transfected using transfection reagent TransExellent-DNA (Cenji Biotech Inc, China) following manufacturer’s instruction, and 15 ng of the Copia-Renilla luciferase reporter was co-transfected as a normalization control. Cells were treated with the indicated reagents for 48 h after transfection. The Dual-Luciferase measurements were performed in triplicate using the Luciferase assay kit (Promega) and a LUMIstar Omega luminometer (BMG Labtech, Mornington, Australia).

[2] = tested on: STAT3 nuclear translocation in ATDC5 cells; test: Immunofluorescence of STAT3 and p-STAT3 subcellular localization; type: cell-based, mouse; conditions: HL-43 (30 μM), 5 ng/ml IL-1β, 24 h
[3] = tested on: cAMP in primary chondrocytes; test: cAMP assay; type: cell-based; conditions: primary mouse chondrocytes, 2 h
Procedure: The cAMP concentration of primary chondrocytes was detected by cAMP dynamic kit (Cisbio, France) following the manufacturer’s instructions. cAMP standards were diluted according to the kit instructions. Cells were treated with HL-43 for 2 h and the relative fold change of cAMP was determined by comparing with the cAMP standard curve.

articular cartilage = test: Aging-induced cartilage defect (CD) mouse model; type: in vivo, mice (strain C57/BL/6); conditions: 19-month-old mice, 30 mg/kg daily by gavage for 3 months
Procedure: WT male mice (strain C57/BL/6) were raised under identical conditions until 19 months. The vehicle, Celecoxib, and HL-43 were administered to mice at 30 mg/kg daily by gavage from 19 to 22 month, n = 9 for vehicle and HL-43-treated groups, n = 6 for Celecoxib treated group.
Knee joints of mice were fixed for 24 h in 4% paraformaldehyde (wt/vol), dehydrated into 100% ethanol, and decalcified for 1 week in 0.5 M EDTA pH 8.0. Paraffin-embedded tissue was sectioned (7 μm) and stained with Safranin O and Hematoxylin & Eosin (H&E) according to standard procedures. The OARSI histologic scoring of OA in the mouse was used to measure the cartilage and synovial damage of OA[71],[77]. Immunohistochemical staining for Col2a1, ColX, Sox9, p-CREB, and CREB were routinely performed and follow previous description. […] Histomorphometry and quantification were performed using ImageJ software. Quantification of Mmp13, ColX, Sox9 positive regions were quantified as the positive area/total cartilage area per field of view under ×40 objective magnification.

[4] = tested on: Col2a1, Acan, Mmp3, Mmp9, Mmp13 expression in primary mouse chondrocytes; test: qRT-PCR of anabolic and catabolic factors in primary chondrocytes; type: cell-based
Procedure: ATDC5 cell line was purchased from Riken BioResource Center (Tsukuba, Japan) and grown in a 1:1 mixture of DMEM/F12 medium (Corning, 10-092-CVR) supplemented with 5% fetal bovine serum (Gibco, 10099, USA) and 1% penicillin-streptomycin solution (Life Technologies). Cells were maintained at 37 °C under 5% CO2. Primary chondrocytes were obtained from knee joint cartilage of newborn mice. Knee joints were dissected from the tibia plateau and femoral condyle articular cartilage of mouse pups and digested in 0.1% collagenase type II (Sigma) overnight at 37 °C and chondrocytes were harvested by centrifugation. Primary chondrocytes were cultured at a density of 5 × 10^3 cells per ml at 37 °C with 5% CO2. DMEM/F12 medium with 10% fetal bovine serum (FBS) and 1% penicillin–streptomycin was used to culture the primary chondrocytes. Chondrogenic differentiation were induced with chondrogenic medium, which contains insulin-transferrin-selenium (ITS) (Sigma, I3146), 10 ng/ml TGF-β3 (PEPROTECH, 100-36E, USA), 100 nM Dexamethasone (Sigma, D4902), 50 μg/ml VC (Sigma), 1 mM sodium pyruvate (Sigma) and 40 μg/ml proline (Sigma), and/or treatment with rmIL-1β (R&D, 401-ML/CF), TNFα (PEPROTECH, 300-01A-50) in DMEM/F12 for indicated days. Western blotting was performed according to standard protocols. Antibodies used were: rabbit anti-Mmp3 (1:1000, HuaBio), rabbit anti-Mmp13 (1:500, abcam, ab39012), rabbit anti-p-CREB (1:2000, Cell Signaling Technology, 87G3), rabbit anti-CREB (1:2000, Cell Signaling Technology, 48H2), mouse anti-GAPDH (1:5000; Sigma-Aldrich, G8795), rabbit anti-Col2 (Abcam, Ab34712), rabbit anti-STAT3 (1:2000; Abcam, ab68153), rabbit anti-p-STAT3 (Y705) (1:2000; Abcam, ab76315), rabbit anti -p65 (1:1000; CST, 3034), rabbit anti-p-p65 (1:1000; CST, 3033), and rabbit anti-IκBα (1:1000; Abways, CY5026).
Quantitative RT-PCR was performed to measure the relative mRNA levels. RNA samples were prepared from the chondrocytes using Trizol (Takara). cDNA was generated using the Prime Script RT reverse transcriptase kit (Yeasen, Drr036a). Primers used for amplification were shown in Supplementary Table S1, GAPDH was used as the house keeping gene.

C[C@H](NC(=O)c1c(-c2ccccc2)nnn1CCOc1ccc(F)cc1)c1ccc(C(=O)O)cc1 [HL-43]
4 × 48-p89-Luc reporter activity [1]: dose-dependently increased | IL-1β-induced nuclear translocation of STAT3 and p-STAT3 [2]: suppressed | cAMP production [3]: dose-dependently induced cAMP production | Cartilage integrity and articular cartilage thickness (articular cartilage): notably preserved cartilage integrity and had thicker articular cartilage | EP4 and STAT3 dependent increase in MMP3/13 expression ([4]; 2 ng/ml IL-1β, 24 h): dose-dependently inhibited | Expression of catabolic factors (Mmp3, Mmp9, and Mmp13) ([4]; primary mouse chondrocytes, 1 ng/ml IL-1β, 24 h): attenuated the expression of catabolic factors (Mmp3, Mmp9, and Mmp13) in a dose-dependent manner | Expression of anabolic factors (Col2a1 and Acan) ([4]; primary mouse chondrocytes, 24 h): promoted the expression of anabolic factors | Col2a1 expression (screen of EP4 antagonists) ([4]; primary murine chondrocytes, 1 ng/ml IL-1β, 24 hr, EP4 antagonists (2 nM)): highest potency in inducing Col2a1 expression | Mmp3 expression (screen of EP4 antagonists) ([4]; primary murine chondrocytes, 1 ng/ml IL-1β, 24 hr, EP4 antagonists (30 μM)): reducing Mmp3 expression
